# Where two headings read alike, the source gives them in different places.
# How the values were obtained:
# PI3Kγ = PI3Kγ (Homo sapiens, UniProt P48736); test: PI3Kγ inhibitory activity (PI3-kinase HTRF assay, inhibition ratio); assay type: biochemical; conditions: 0.5 h, compound at 10 μmol/L; read-out: PI3Kg Inhibition Ratio % (10 μM)
# Procedure, shortened: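 Compound at 10 μmol/L preincubated 10 min with PI3Kγ and PIP2 substrate, then reacted with ATP for 30 minutes at room temperature; the compound, substrate and ATP figures as printed (40 μmol/L each) are solution concentrations. HTRF 665/620 nm ratio read after 18 hours. Inhibition ratio calculated against no-compound (100%) and no-enzyme (0%) controls.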
# CYP3A4 = target: T1, CYP3A4 (Homo sapiens, UniProt P08684); test: CYP3A4 fluorescence MBI test; assay type: in vitro ADME; conditions: difference in IC50 with 0 or 30 minutes pre-reaction; CYP3A4 expressed in E. coli, substrate 7-BFC
# T1 construct: host or cells: E. coli
# Procedure, shortened: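 E. coli-expressed CYP3A4 debenzylating 5.6 μmol/L 7-BFC to fluorescent 7-HFC (Ex 420/Em 535 nm) in K-Pi pH 7.4 at 25° C, 15 min reaction. NADPH pre-incubation of 0 or 30 min, with 10-fold dilution before reaction. IC50 from 0.625–20 μmol/L (6 points); (+) for an IC50 shift ≥5 μmol/L, (−) for ≤3 μmol/L.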
# [1] = test system: CYP1A2, CYP2C9, CYP2C19, CYP2D6 and CYP3A4 (one value for the five species); test: CYP inhibition test, five CYP species together (5CYPs_IC50; pooled human liver microsome); assay type: in vitro ADME
# Description: O-de-ethylation of 7-ethoxyresorufin (CYP1A2), methyl-hydroxylation of tolbutamide (CYP2C9), 4′-hydroxylation of mephenyloin (CYP2C19), O-demethylation of dextromethorphan (CYP2D6), and hydroxylation of terfenadine (CYP3A4), which are typical substrate for metabolic reactions of human main CYP5 molecular species (CYP1A2, 2C9, 2C19, 2D6, and 3A4), were adopted as indexes.
# The reaction conditions are as follows: substrate: 0.5 μmol/L of ethoxyresorufin (CYP1A2), 100 μmol/L of tolbutamide (CYP2C9), 50 μmol/L of S-mephenyloin (CYP2C19), 5 μmol/L of dextromethorphan (CYP2D6), and 1 μmol/L of terfenadine (CYP3A4); reaction time; 15 minutes; reaction temperature: 37° C.; enzyme: pooled human liver microsome 0.2 mg protein/mL; test drug concentration: 1, 5, 10, and 20 μmol/L (4 points).
# In a 96-well plate, as a reaction solution, five kinds of substrates, a human liver microsome, and a test drug were added to 50 mmol/L Hepes buffer solution in the aforementioned ratio. A coenzyme NADPH was added to start a metabolic reaction, which is an index. After reacting at 37° C. for 15 minutes, a solution of methanol/acetonitrile (1/1 (v/v)) was added to quench the reaction. After centrifugation at 3000 rpm for 15 minutes, resorufin (CYP1A2 metabolite) in the supernatant was quantitated with a fluorescence multilabel counter, and hydroxylated tolbutamide (CYP2C9 metabolite), 4′-hydroxylated mephenyloin (CYP2C19 metabolite), […], terfenadine in alcohol form (CYP3A4 metabolite) were quantitated with LC/MS/MS.
# The case wherein only DMSO (a solvent which dissolved a drug) was added to a reaction system was defined as a control (100%). When a test drug solution was added, the remaining activity (%) at each concentration was calculated, and then IC50 was calculated with a concentration and an inhibition ratio by an inverse estimation using a logistic model.
# [2] = Metabolic stability test (pooled human liver microsome); assay type: in vitro ADME; conditions: percentage of test compound remained after 30 minutes, pooled human liver microsome 0.5 mg protein/mL, 1 mmol/L NADPH, 37° C., compound 0.5 μM
# Procedure, shortened: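 Pooled human liver microsomes (0.5 mg protein/mL) incubated with compound and 1 mmol/L NADPH at 37° C. in pH 7.4 Tris buffer for 0 or 30 min. Parent quantified by LC/MS/MS after methanol/acetonitrile quench; value is % remaining at 30 min versus 0 min.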
# hERG channel (IKr) = target: T2, hERG channel (IKr) (Homo sapiens, UniProt Q12809); test: hERG test (whole-cell patch-clamp, IKr in HEK293 cells); assay type: cell-based; conditions: human, HEK293 cells expressing hERG channel, pH 7.4, inhibition of maximum tail current (IKr), compound 1 μM
# T2 construct: expressed in transfected cells; host or cells: HEK293
# Procedure, shortened: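 hERG-expressing HEK293 cells, automated whole-cell patch clamp: hold −80 mV, +50 mV for 2 s, then −50 mV for 2 s to record IKr tail current. Compound in extracellular solution (pH 7.4) for 10 min at room temperature; inhibition of maximum tail current calculated versus pre-application and compared with 0.1% DMSO vehicle.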
# AKT phosphorylation = AKT phosphorylation inhibitory activity in MCP-1 stimulated THP-1 cells (sandwich ELISA); assay type: cell-based, Human; conditions: Homo sapiens, compound at 1 μmol/L, MCP-1 stimulation, read-out: AKT phosphorylation inhibition ratio
# Method: (1) The AKT phosphorylation inhibitory activity of a compound was evaluated according to the following procedure. (2) Human monocyte-like cell line THP-1 was washed with RPMI-1640 media, incubated in the presence of 5% CO2 at 37° C. for 3 hours, washed with Hank's balanced salt solution (HBSS), adjusted to a cell concentration of 6.7×10^6/mL, and then used in an experiment. (3) 30 μL of the cell suspension and 60 μL of each compound solution containing 0.2% DMSO/HBSS were mixed and then preincubated at 37° C. for 5 minutes. 30 μL of HBSS containing 1.2 μg/mL of MCP-1 was added thereto and then incubated for 60 seconds at 37° C. (4) 30 μL of a cell lysate (the final concentrations: 20 mmol/L Tris-HCl (pH 7.5), 150 mmol/L NaCl, 1 mmol/L EDTA, 1 mmol/L EDTA, 1% Triton X-100, 2.5 mmol/L sodium pyrophosphate, 1 mmol/L β-glycerophosphate, 1 mmol/L Na3VO4, 1 μg/ml leupeptin, 50 nmol/L APMSF) was added thereto to lyse cells. (5) The amount of AKT phosphorylation in the cell solution was measured by sandwich ELISA method using anti-Phospho-Akt (Ser473) antibody and anti-AKT1 antibody. (6) Anti-Phospho-Akt (Ser473) antibodies or anti-AKT1 antibodies were immobilized onto the solid phase of a micro well plate. The prepared cell lysate was added to the micro well plate, incubated, and then washed with ELISA wash solution. (7) An anti-AKT1 antibody or anti-Phospho-Akt (Ser473) antibody, which forms a counterpart to an antibody immobilized on the solid phase, was added thereto, incubated, washed similarly, and then reacted with an HRP-labeled anti-mouse IgG antibody. (8) After incubating for 30 minutes and then washing similarly, 100 μL of TMB (3,3′,5,5″-tetramethylbenzidine) was added thereto, followed by reacting for 30 minutes. (9) 100 μL of stop solution was added to quench the color reaction, and then the absorbance at 450 nm was measured. (10) The amount of AKT phosphorylation in a sample in the absence of a compound was defined as 100% activity, and the amount of AKT phosphorylation in a sample in the absence of MCP-1 was defined as 0% activity to calculate an inhibition ratio of each compound. The measurement was performed for a 1 μmol/L solution of each compound.
# T1 sequence (P08684 whole entry): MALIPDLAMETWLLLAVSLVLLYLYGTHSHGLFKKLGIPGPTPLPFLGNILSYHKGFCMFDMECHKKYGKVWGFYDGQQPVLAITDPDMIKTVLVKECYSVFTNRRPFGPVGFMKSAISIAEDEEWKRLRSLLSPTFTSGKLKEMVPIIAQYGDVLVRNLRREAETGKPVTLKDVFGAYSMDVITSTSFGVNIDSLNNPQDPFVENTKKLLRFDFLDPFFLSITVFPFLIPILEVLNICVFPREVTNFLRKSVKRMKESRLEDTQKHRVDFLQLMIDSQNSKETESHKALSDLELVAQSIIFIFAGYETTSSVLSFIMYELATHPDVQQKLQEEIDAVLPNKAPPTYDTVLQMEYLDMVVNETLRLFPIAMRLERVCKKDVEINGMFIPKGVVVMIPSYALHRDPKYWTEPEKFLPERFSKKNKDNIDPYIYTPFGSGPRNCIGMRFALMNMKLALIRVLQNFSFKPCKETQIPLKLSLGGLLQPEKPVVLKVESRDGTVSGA
# T2 sequence (Q12809 whole entry): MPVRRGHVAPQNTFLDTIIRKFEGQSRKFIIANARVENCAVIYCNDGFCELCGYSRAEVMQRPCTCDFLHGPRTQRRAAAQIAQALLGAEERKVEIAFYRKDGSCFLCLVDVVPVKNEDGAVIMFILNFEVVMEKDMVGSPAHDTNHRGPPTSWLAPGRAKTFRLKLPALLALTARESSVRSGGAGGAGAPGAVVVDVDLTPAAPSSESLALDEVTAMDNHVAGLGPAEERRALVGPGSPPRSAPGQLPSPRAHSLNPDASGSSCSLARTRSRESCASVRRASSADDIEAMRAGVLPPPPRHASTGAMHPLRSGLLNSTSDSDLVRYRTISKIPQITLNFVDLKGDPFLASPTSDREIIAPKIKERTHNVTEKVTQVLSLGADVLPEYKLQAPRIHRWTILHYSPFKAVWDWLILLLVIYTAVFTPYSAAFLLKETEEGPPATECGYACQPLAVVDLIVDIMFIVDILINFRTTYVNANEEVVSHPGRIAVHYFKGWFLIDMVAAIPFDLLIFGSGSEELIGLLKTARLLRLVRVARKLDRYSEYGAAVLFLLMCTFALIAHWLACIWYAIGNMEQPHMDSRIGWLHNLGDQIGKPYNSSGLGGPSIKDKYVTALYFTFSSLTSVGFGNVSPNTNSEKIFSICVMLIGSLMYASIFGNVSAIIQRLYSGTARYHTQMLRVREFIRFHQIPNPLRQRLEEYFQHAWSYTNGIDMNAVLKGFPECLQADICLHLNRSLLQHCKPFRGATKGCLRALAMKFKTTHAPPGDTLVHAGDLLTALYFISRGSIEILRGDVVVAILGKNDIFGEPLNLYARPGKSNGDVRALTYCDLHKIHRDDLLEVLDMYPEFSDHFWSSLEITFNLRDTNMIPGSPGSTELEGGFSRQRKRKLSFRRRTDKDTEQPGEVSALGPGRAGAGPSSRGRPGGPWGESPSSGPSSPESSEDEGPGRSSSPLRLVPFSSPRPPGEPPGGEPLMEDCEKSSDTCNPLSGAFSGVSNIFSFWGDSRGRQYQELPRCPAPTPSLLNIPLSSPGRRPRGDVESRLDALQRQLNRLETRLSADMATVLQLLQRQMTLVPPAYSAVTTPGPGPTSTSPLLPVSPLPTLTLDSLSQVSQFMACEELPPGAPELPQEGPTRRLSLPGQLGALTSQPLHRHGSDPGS
# PI3Kγ, sequence (P48736 whole entry, species assumed): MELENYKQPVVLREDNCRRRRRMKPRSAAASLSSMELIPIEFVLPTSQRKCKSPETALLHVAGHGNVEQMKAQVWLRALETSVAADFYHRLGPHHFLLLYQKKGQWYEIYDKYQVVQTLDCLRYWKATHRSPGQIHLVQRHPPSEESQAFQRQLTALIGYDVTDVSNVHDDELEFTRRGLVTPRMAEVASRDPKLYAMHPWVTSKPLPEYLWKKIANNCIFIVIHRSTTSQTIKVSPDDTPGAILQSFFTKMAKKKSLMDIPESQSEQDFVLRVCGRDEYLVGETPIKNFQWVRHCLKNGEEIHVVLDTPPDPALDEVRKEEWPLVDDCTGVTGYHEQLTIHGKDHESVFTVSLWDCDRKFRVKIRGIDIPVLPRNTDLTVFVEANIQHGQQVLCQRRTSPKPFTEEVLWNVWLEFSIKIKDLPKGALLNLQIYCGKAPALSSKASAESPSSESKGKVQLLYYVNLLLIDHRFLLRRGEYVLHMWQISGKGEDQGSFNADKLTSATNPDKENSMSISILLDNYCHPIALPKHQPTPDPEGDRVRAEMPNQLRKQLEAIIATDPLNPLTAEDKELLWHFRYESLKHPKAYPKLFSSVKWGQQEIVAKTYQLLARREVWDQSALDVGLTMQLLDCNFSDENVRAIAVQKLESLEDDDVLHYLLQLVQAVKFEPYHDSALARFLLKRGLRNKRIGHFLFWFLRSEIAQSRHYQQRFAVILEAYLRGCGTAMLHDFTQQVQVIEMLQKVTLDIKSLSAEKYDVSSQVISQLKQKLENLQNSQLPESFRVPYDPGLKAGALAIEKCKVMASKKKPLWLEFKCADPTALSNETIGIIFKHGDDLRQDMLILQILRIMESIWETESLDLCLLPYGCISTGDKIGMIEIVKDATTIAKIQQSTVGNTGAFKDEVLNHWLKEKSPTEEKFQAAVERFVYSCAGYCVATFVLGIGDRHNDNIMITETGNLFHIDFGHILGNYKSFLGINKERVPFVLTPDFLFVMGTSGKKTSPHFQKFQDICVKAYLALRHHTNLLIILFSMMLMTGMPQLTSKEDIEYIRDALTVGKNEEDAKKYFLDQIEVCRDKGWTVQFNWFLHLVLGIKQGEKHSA
SMILES,inhibition at 10 µM (PI3Kγ),"IC50 at 15 min ([1]; pooled human liver microsomes, one value for five species (CYP1A2, 2C9, 2C19, 2D6, 3A4), pooled human liver microsome 0.2 mg protein/mL, 15 minutes, 37° C., test drug 1-20 μmol/L, read-out: 5CYPs_IC50)","IC50 at 15 min ([1]; human, microsomes)",hLMS_ox(at 0.5 μM) % [2],MBI (CYP3A4),"inhibition at 10 min, 1 µM (hERG channel (IKr))",inhibition at 1 µM (AKT phosphorylation)
COc1cc(N2CCc3nc(NC(=O)Nc4ccccc4C(=O)O)sc3C2)nc(OC)n1.Cl.Cl [Compound I-5],85%,≥ 10 µM,–,–,"(−) (When 3 μmol/L or less, the compound is shown as (−))",–,–
COc1cc(N2CCc3nc(NC(=O)Nc4ccccc4C(C)=O)sc3C2)nc(OC)n1 [Compound I-9],93%,–,≥ 10 µM,–,"(−) (When 3 μmol/L or less, the compound is shown as (−))",–,–
COc1cc(C2CCc3nc(NC(=O)Nc4ccccc4C(=O)NC(C)C)sc3C2)nc(OC)n1 (stereo not drawn) [Compound I-60],≥ 95%,–,> 20 µM,81.9%,–,3.6%,–
COCCNC(=O)c1ccccc1NC(=O)Nc1nc2c(s1)CN(c1cc(OC)nc(OC)n1)CC2 [Compound I-86],≥ 95%,–,≥ 10 µM,–,"(−) (When 3 μmol/L or less, the compound is shown as (−))",–,–
COc1cc(N2CCc3nc(NC(=O)Nc4ccccc4C(=O)NCCC#N)sc3C2)nc(OC)n1 [Compound I-89],≥ 95%,–,≥ 10 µM,93.6%,"(−) (When 3 μmol/L or less, the compound is shown as (−))",–,–
COc1cc(N2CCc3nc(NC(=O)Nc4cn(C)nc4C(=O)NC(CO)CO)sc3C2)nc(OC)n1 [Compound I-170],≥ 95%,–,> 20 µM,91.6%,–,–,80%
COc1nc(Cl)cc(N2CCc3nc(NC(=O)Nc4ccccc4C(=O)NC4CCOC4)sc3C2)n1 (stereo not drawn) [Compound I-175],≥ 95%,–,≥ 10 µM,–,–,1.6%,88%

# Further lines, with some results ahead:
inhibition at 10 µM (PI3Kγ),"IC50 at 15 min ([1]; pooled human liver microsomes, one value for five species (CYP1A2, 2C9, 2C19, 2D6, 3A4), pooled human liver microsome 0.2 mg protein/mL, 15 minutes, 37° C., test drug 1-20 μmol/L, read-out: 5CYPs_IC50)","IC50 at 15 min ([1]; human, microsomes)",hLMS_ox(at 0.5 μM) % [2],SMILES,MBI (CYP3A4),"inhibition at 10 min, 1 µM (hERG channel (IKr))",inhibition at 1 µM (AKT phosphorylation)
≥ 95%,–,> 20 µM,80.1%,COc1cc(N2CCc3nc(NC(=O)Nc4ccccc4C(=O)NC(C)C)sc3C2)cc(OC)n1 [Compound I-63],–,2.7%,–
–,–,> 20 µM,–,COc1cncc(C2CCc3nc(NC(=O)Nc4ccccc4C(=O)NC(C)C)sc3C2)c1 (stereo not drawn) [Compound I-81],"(−) (When 3 μmol/L or less, the compound is shown as (−))",–,–
–,–,≥ 10 µM,83.4%,COc1cc(N2CCc3nc(NC(=O)Nc4ccccc4C(=O)NCC#N)sc3C2)nc(OC)n1 [Compound I-90],"(−) (When 3 μmol/L or less, the compound is shown as (−))",–,–
–,–,> 20 µM,–,CC(C)NC(=O)c1ccccc1NC(=O)Nc1nc2c(s1)CN(c1cncc(S(=O)(=O)N(C)C)c1)CC2 [Compound I-108],"(−) (When 3 μmol/L or less, the compound is shown as (−))",–,–
≥ 95%,–,≥ 10 µM,84.7%,CC(CO)NC(=O)c1ccccc1NC(=O)Nc1nc2c(s1)CN(c1cccc(F)c1)CC2 (stereo not drawn) [Compound I-115],–,–,–
≥ 95%,–,≥ 10 µM,98%,Cc1cc(N2CCc3nc(NC(=O)Nc4ccccc4C(=O)NCC#N)sc3C2)nc(Cl)n1 [Compound I-172],"(−) (When 3 μmol/L or less, the compound is shown as (−))",–,–
71%,–,≥ 10 µM,–,O=C(Nc1nc2c(s1)CN(c1cncc(C(F)(F)F)c1)CC2)Nc1ccccc1C(=O)NC(CO)CO [Compound I-173],"(−) (When 3 μmol/L or less, the compound is shown as (−))",–,–
–,–,≥ 10 µM,–,COc1nc(Cl)cc(N2CCc3nc(NC(=O)Nc4ccccc4C(=O)NC(C)C(F)(F)F)sc3C2)n1 (stereo not drawn) [Compound I-176],"(−) (When 3 μmol/L or less, the compound is shown as (−))",0.4%,83%
80%,–,> 20 µM,–,CC(C)NC(=O)c1ccccc1NC(=O)Nc1nc2c(s1)CN(c1cncc(C#N)c1)CC2 [Compound I-188],–,3.9%,84%
≥ 95%,–,> 20 µM,–,CC(C)NC(=O)c1ccccc1NC(=O)Nc1nc2c(s1)CN(c1ccc(S(C)(=O)=O)cc1)CC2 [Compound I-204],"(−) (When 3 μmol/L or less, the compound is shown as (−))",–,–
≥ 95%,–,≥ 10 µM,–,CC(C)NC(=O)c1ccccc1NC(=O)Nc1nc2c(s1)CN(c1ccc(C#N)cc1)CC2 [Compound I-209],"(−) (When 3 μmol/L or less, the compound is shown as (−))",–,–

# Source: patent US20120071475A1, “UREA DERIVATIVES HAVING PI3K-INHIBITING ACTIVITY” (SHIONOGI & CO., LTD., priority 2009, published 2012)
